Assay results: PubChem BioAssay (NCI)
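Cultured in 96-well plates, cells were exposed to test compound for 48 hours across five concentrations. TGI denotes the concentration required for complete inhibition of growth.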

Columns and labels:
Test in all cases: DTP human tumour cell line panel, 48 h
SK-MEL-5 melanoma = system: SK-MEL-5 melanoma
HCT-116 colon = system: HCT-116 colon
ACHN renal = system: ACHN renal
HOP-92 NSCLC = system: HOP-92 NSCLC
NCI/ADR-RES ovarian = system: NCI/ADR-RES ovarian
SK-MEL-28 melanoma = system: SK-MEL-28 melanoma
SF-295 CNS = system: SF-295 CNS
A498 renal = system: A498 renal
SK-MEL-2 melanoma = system: SK-MEL-2 melanoma
NCI-H522 lung = system: NCI-H522 lung
SNB-75 CNS = system: SNB-75 CNS
SW-620 colon = system: SW-620 colon
OVCAR-4 ovarian = system: OVCAR-4 ovarian
KM12 colon = system: KM12 colon
EKVX NSCLC = system: EKVX NSCLC
IGROV1 ovarian = system: IGROV1 ovarian
MALME-3M melanoma = system: MALME-3M melanoma
MCF7 breast = system: MCF7 breast
OVCAR-8 ovarian = system: OVCAR-8 ovarian
HOP-62 NSCLC = system: HOP-62 NSCLC
PC-3 prostate = system: PC-3 prostate
CCRF-CEM leukemia = system: CCRF-CEM leukemia
DU-145 prostate = system: DU-145 prostate
786-0 renal = system: 786-0 renal
RPMI-8226 leukemia = system: RPMI-8226 leukemia
NCI-H460 lung = system: NCI-H460 lung
A549 NSCLC = system: A549 NSCLC
MOLT-4 leukemia = system: MOLT-4 leukemia
M14 melanoma = system: M14 melanoma
MDA-N = system: MDA-N
MDA-MB-435 = system: MDA-MB-435
SN12C renal = system: SN12C renal
TK-10 renal = system: TK-10 renal
CAKI-1 renal = system: CAKI-1 renal
HCC-2998 colon = system: HCC-2998 colon
SR leukemia = system: SR leukemia
UACC-62 melanoma = system: UACC-62 melanoma
COLO 205 colon = system: COLO 205 colon
SNB-19 CNS = system: SNB-19 CNS
OVCAR-3 ovarian = system: OVCAR-3 ovarian
T-47D breast = system: T-47D breast
HS 578T breast = system: HS 578T breast
MDA-MB-231 breast = system: MDA-MB-231 breast
SF-539 CNS = system: SF-539 CNS
HCT-15 colon = system: HCT-15 colon
U251 CNS = system: U251 CNS
UACC-257 melanoma = system: UACC-257 melanoma
NCI-H23 lung = system: NCI-H23 lung
LOX IMVI melanoma = system: LOX IMVI melanoma
K-562 leukemia = system: K-562 leukemia
SF-268 CNS = system: SF-268 CNS
RXF 393 renal = system: RXF 393 renal
HT29 colon = system: HT29 colon
UO-31 renal = system: UO-31 renal
OVCAR-5 ovarian = system: OVCAR-5 ovarian
NCI-H226 lung = system: NCI-H226 lung
SK-OV-3 ovarian = system: SK-OV-3 ovarian
BT-549 breast = system: BT-549 breast
HL-60(TB) leukemia = system: HL-60(TB) leukemia

Measured: TGI

OC/C=C/[C@H](OCc1ccccc1)[C@H](/C=C/CO)OCc1ccccc1
85.9 µM: SNB-19 CNS
51.4 µM: CCRF-CEM leukemia
88.8 µM: T-47D breast
95 µM: OVCAR-4 ovarian
59.9 µM: HT29 colon
39.6 µM: SR leukemia
54.7 µM: K-562 leukemia
69.1 µM: U251 CNS
42.8 µM: RPMI-8226 leukemia
47.4 µM: LOX IMVI melanoma
40 µM: MOLT-4 leukemia
94.6 µM: SF-268 CNS
not listed: HL-60(TB) leukemia
> 100 µM: all other assays above

COC(=O)c1cc(C)n(CN(Cn2nc(C(=O)OC)cc2C)c2ccccc2)n1
55.2 µM: UO-31 renal
47.2 µM: HCT-15 colon
61 µM: 786-0 renal
47.5 µM: HL-60(TB) leukemia
33.4 µM: MOLT-4 leukemia
60.4 µM: K-562 leukemia
47.9 µM: OVCAR-8 ovarian
44.4 µM: RXF 393 renal
32 µM: COLO 205 colon
88 µM: UACC-62 melanoma
93.5 µM: MCF7 breast
42.3 µM: LOX IMVI melanoma
54.2 µM: CCRF-CEM leukemia
69.6 µM: NCI-H23 lung
40.9 µM: HCT-116 colon
25.5 µM: SR leukemia
36.3 µM: SF-539 CNS
88.3 µM: T-47D breast
44.6 µM: ACHN renal | RPMI-8226 leukemia
36 µM: HT29 colon
94.7 µM: NCI/ADR-RES ovarian
not listed: SNB-75 CNS | HCC-2998 colon | NCI-H226 lung
> 100 µM: all other assays above

CC(C)(C)OC(=O)NC(Cc1ccc(OCc2ccccc2)cn1)C(=O)N1CCCC1 (stereo not given)
96.7 µM: BT-549 breast
67.4 µM: SF-539 CNS
41.9 µM: SK-MEL-5 melanoma
91.8 µM: NCI/ADR-RES ovarian
not listed: OVCAR-4 ovarian | NCI-H226 lung | SK-OV-3 ovarian
> 100 µM: all other assays above
